Among the data in PubChem BioAssay (NCI) are GI50 and TGI values, retold here.

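Values below derive from 48-hour exposures of cells grown in 96-well plates, with endpoints linearly interpolated between the two concentrations bracketing the appropriate inhibition level. At the GI50, growth is halved. TGI: total growth inhibition.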

By GI50 is commonly meant the concentration that inhibits growth by half. By TGI is commonly meant the concentration at which net growth stops. Read a high TGI as less potent growth arrest.

Common to all, as to assay: DTP human tumour cell line panel, 48 h
Test [1] has as its system COLO 205 colon.
The subject of test [2] is EKVX NSCLC.
In test [3] the test system is HCC-2998 colon.
Test [4] relates to HCT-15 colon.
In test [5] the test system is HL-60(TB) leukemia.
The test system of test [6] is M14 melanoma.
Test [7] concerns MDA-MB-435.
Test [8] relates to OVCAR-5 ovarian.
Test [9] concerns OVCAR-8 ovarian.
In test [10] the test system is SF-268 CNS.

Take `CCn1cc(/C=C2\Oc3cc(OCC#N)ccc3C2=O)c2cc(OC)ccc21`: the GI50 in test [1] was 0.348 µM; in test [2] it was 1.44 µM; in test [3], 1.86 µM; in [4], 0.153 µM; in [5], 0.0872 µM; in [6], 0.119 µM. In addition, the 50% growth inhibitory concentration (GI50) in test [7] is 0.0764 µM; in [8], 1.41 µM; in [9] it was 0.53 µM; in test [10], 1.48 µM. Also, the TGI is 4.12 µM in test [1]; more than 100 µM in test [2]; more than 100 µM in test [3]; more than 100 µM in test [4]; 0.903 µM in [5]; more than 100 µM in test [6]. Also, the TGI was 0.263 µM in [7], more than 100 µM in test [8], more than 100 µM in test [9] and more than 55.6 µM in test [10].
With `CC(C)(C)[Si](C)(C)OC1[C@@H](CNC(N)=O)O[C@@H](n2cnc3c(NC(=O)Nc4ccccc4)ncnc32)[C@H]1O[Si](C)(C)C(C)(C)C` (stereo not given in full), the GI50 is 1.23 µM in [1]; 1.94 µM in test [2]; 1.6 µM in test [3]; 2.67 µM in test [4]; 1.01 µM in [5]; 2 µM in test [6]. The GI50 is 2.21 µM in [7], 6.65 µM in [8], 1.77 µM in test [9] and 1.04 µM in [10]. For the same compound, the TGI in [1] stood at 2.7 µM; in test [2], 8.02 µM; in [3], 6.18 µM; in test [4] it was 10.3 µM; in test [5], 2.12 µM; in [6], 8.11 µM. In addition, the TGI in test [7] stood at 8.51 µM; in [8], 13.5 µM; in test [9], 7.32 µM; in test [10] it was 2.36 µM.
Take `C=C(CN1CCc2c([nH]c3ccccc23)C1)c1ccc(C(=O)Nc2ccccc2N)cc1`: the GI50 was 6.35 µM in test [1]; 2.14 µM in test [2]; 0.731 µM in test [3]; 3.5 µM in test [4]; 0.67 µM in test [5]; 4.13 µM in test [6]. Besides, the GI50 in [7] was 8.47 µM; in test [8] it was 7.15 µM; in [9] it was 1.9 µM; in test [10], 2.89 µM. For the same compound, the TGI in test [1] amounted to 20.9 µM; in test [2], 13.5 µM; in test [3], 1.91 µM; in [4], 28.1 µM; in test [5] it was 7.25 µM; in test [6], 14.7 µM. For the same compound, the concentration for total growth inhibition (TGI) in [7] came out at 17.7 µM; in test [8], 31.6 µM; in test [9], 14.7 µM; in test [10] it was 10.8 µM.
On to `COc1ccc2c(c1)CN([C@@H](C)[C@H]1CC[C@H]3[C@@H]4CC[C@H]5C[C@@H](O)CC[C@]5(C)[C@H]4CC[C@]13C)CO2`, for which the TGI came out at 3.85 µM in test [1]; 14.7 µM in [2]; 3.01 µM in test [3]; 3.75 µM in test [4]; 5.91 µM in test [5]; 3.54 µM in [6]. Besides, the concentration for total growth inhibition (TGI) in test [7] was 3.48 µM; in [8] it was 13.5 µM; in test [9], more than 24.1 µM; in test [10] it was 7.38 µM.
For `c1ccc(-c2nc3n(c2-c2ccc4c(c2)OCO4)CCC3)nc1`, the GI50 is 9.15 µM in test [1]; 5.2 µM in test [2]; 10.4 µM in [3]; 0.766 µM in test [4]; 2.56 µM in test [5]; 6.77 µM in [6]. The GI50 in test [7] is 8.8 µM; in test [8] it was 5.03 µM; in test [9], 6.34 µM; in test [10], 7.86 µM. For the same compound, the TGI in [1] is more than 25 µM; in test [2], more than 25 µM; in test [3], more than 25 µM; in test [4] it was more than 25 µM; in test [5], 10.7 µM; in test [6] it was more than 20.3 µM. Besides, the TGI in [7], in test [8], in [9] and in test [10] was more than 25 µM each time.
As to `N=c1ccc2nc3ccc(N)cc3sc-2c1`, the GI50 is 2.25 µM in [1]; 6.63 µM in [2]; 6.82 µM in [3]; 5.4 µM in test [4]; 1.9 µM in [5]; 4.34 µM in test [6]. Further, the GI50 in test [7] was 2.37 µM; in test [8], 7.62 µM; in test [9], 3.69 µM; in test [10] it was 6.42 µM. Further, the TGI in test [1] is 12.5 µM; in test [2], 81.1 µM; in test [3], 97.7 µM; in test [4] it was more than 100 µM; in test [5], 20.8 µM; in [6] it was 21.8 µM. Besides, the TGI was 5.21 µM in test [7], 24.3 µM in test [8], 14 µM in [9] and 56.2 µM in test [10].
As for `COc1ccc(/C=C2/C(=O)N(C(=O)c3ccccc3O)N=C2C)cc1`, the TGI was more than 89.2 µM in [1]; more than 100 µM in test [2]; more than 100 µM in test [3]; 1.24 µM in test [4]; 9.87 µM in [5]; more than 100 µM in test [6]. For the same compound, the TGI was more than 100 µM in [7], more than 100 µM in test [8], more than 41.1 µM in test [9] and more than 100 µM in test [10].
Turning to `CC(=O)c1ccc2c(c1)N(CCCN1CCN(CCO)CC1)c1ccccc1S2`, the GI50 in test [1] is 1.74 µM; in test [2], 4.83 µM; in [3], 1.71 µM; in test [4], 1.99 µM; in test [5], 2.12 µM; in test [6], 1.88 µM. Further, the GI50 was 1.72 µM in [7], 2.29 µM in test [8], 3.34 µM in test [9] and 3.15 µM in test [10]. The TGI in test [1] came out at 3.5 µM; in [2], 21 µM; in test [3], 3.2 µM; in test [4], 5.01 µM; in [5] it was 4.83 µM; in [6] it was 3.6 µM. Moreover, the TGI came out at 3.52 µM in [7], 9.78 µM in test [8], 10.5 µM in [9] and 12.2 µM in [10].
